According to US20250002450A1, “CATIONIC STEROID COMPOUNDS, METHOD OF OBTAINING THEREOF, FORMULATIONS COMPRISING THEREOF AND THEIR USES” (UNIVERSIDADE DO PORTO, priority 2021, published 2025):
Values after ≈ are worked out from the molar mass of the structure shown.

Experiments:
S. aureus 66/1 (MRSA) = assay: Antibacterial MIC/MBC (broth microdilution); type: cell-based, Staphylococcus aureus; details: Staphylococcus aureus; for MBC: read-out: MBC; for MIC: read-out: MIC
From the text: (§1) Twelve reference bacterial strains and nine MDR clinically relevant bacterial strains were used in this study. Gram-negative bacteria comprised reference strains E. coli ATCC 25922, K. pneumoniae ATCC 13883, Salmonella enterica serovar Typhimurium CECT 443, P. aeruginosa ATCC 27853, A. baumannii ATCC 19606, C. jejuni ATCC 33560 (ATCC—American Type Culture Collection; CECT—Colección Espanola de Cultivos Tipo); clinical isolates E. coli SA/2, an extended-spectrum β-lactamase (ESBL)-producing strain and P. aeruginosa 33b, a pan-drug-resistant isolate; and animal isolates C. jejuni P5/4, a ciprofloxacin-resistant strain, C. jejuni 4432, C. jejuni 4433, C. jejuni 4448, and E. coli 2252, a COL-resistant strain [42]. Gram-positive strains included S. aureus ATCC 29213, E. faecalis ATCC 29212, S. pyogenes ATCC 19615, and environmental isolates methicillin-resistant S. aureus (MRSA) 66/1 [43], and VAN-resistant enterococci (VRE) E. faecalis B3/101 [44]. Gram-negative fish pathogens Yersinia ruckeri ATCC 29473, Listonella anguillarum ATCC 1924, and Tenacibaculum maritimum ATCC 43397 were also included.
(§2) Strains were kept in Trypto-Casein Soy agar (TSA—Biokar Diagnostics, Allone, Beauvais, France) slants and, before each assay, were sub-cultured in Mueller-Hinton agar (MHA—Biokar Diagnostics, Allone, Beauvais, France). Y. ruckeri ATCC 29473 and L. anguillarum ATCC 1924 were kept in Nutrient Agar (Condalab, Madrid, Spain) and T. maritimum ATCC 43397 was kept in TMM agar (Condalab, Madrid, Spain), and were sub-cultured in the respective culture media before each assay. For S. pyogenes ATCC 19615, CAMHB was supplemented with 3.75% lysed horse blood (LBH—Oxoid, Basingstoke, England), whereas for C. jejuni it was supplemented with 2.5% LHB. Colony-forming unit counts of the inoculum were conducted to determine the initial inoculum size (which should be approximately 5×10^5 CFU/mL). Sterility and growth controls were included in each assay. The 96-well U-shaped untreated polystyrene microtiter plates were incubated for 20 h at 37 degrees C. (42 degrees C. for C. jejuni, in a microaerophilic atmosphere) and the minimal inhibitory concentration (MIC) was determined as the lowest concentration of compound that prevented visible growth. The minimal bactericidal concentration (MBC) was determined by spreading 100 μL of the content of the wells with no visible growth on MH plates. The MBC was determined as the lowest concentration of compound that killed 99.9% of the initial inoculum after overnight incubation at 37 degrees C. Two independent assays were performed for reference and MDR strains.
(§3) An initial screening of the antibacterial activity of the compounds was performed by the Kirby-Bauer disk diffusion method, as recommended by the Clinical and Laboratory Standards Institute (CLSI). Briefly, sterile 6 mm blank paper disks (Oxoid, Basingstoke, England) impregnated with 15 μg of each compound were placed on inoculated MH agar plates. A blank disk with dimethylsulfoxide (DMSO) was used as a negative control. MH inoculated plates were incubated for 18-20 h at 37 degrees C. At the end of incubation, the inhibition halos where measured. The MIC was used to determine the antibacterial activity of each compound, in accordance with the recommendations of the CLSI. Two-fold serial dilutions of the compounds were prepared in Mueller-Hinton Broth 2 (MHB2—Sigma-Aldrich, St. Louis, MO, USA) within the concentration range of 0.062-64 μg/mL. CTX ranging between 0.031-16 μg/mL was used as a control. Sterility and growth controls were included in each assay. Purity checks and colony counts of the inoculum suspensions were also performed in order to ensure that the final inoculum density closely approximates the intended number (5×10^5 CFU/mL). The MIC was determined as the lowest concentration of compound that inhibited growth of the bacteria. The MBC was assessed by spreading 10 μL of culture collected from wells showing no visible growth on MH agar plates. […]

C. jejuni 4433 = assay: Antibacterial MIC/MBC (broth microdilution); type: cell-based, Campylobacter jejuni; details: for MBC / MIC: Campylobacter jejuni; for MBC: read-out: MBC; for MIC: read-out: MIC
From the text: as §1, §2, §3

C. jejuni 4448 = assay: Antibacterial MIC/MBC (broth microdilution); type: cell-based, Campylobacter jejuni; details: for MBC / MIC: Campylobacter jejuni; for MBC: read-out: MBC; for MIC: read-out: MIC
From the text: as §1, §2, §3

C. jejuni 4432 = assay: Antibacterial MIC/MBC (broth microdilution); type: cell-based, Campylobacter jejuni; details: for MBC / MIC: Campylobacter jejuni; for MBC: read-out: MBC; for MIC: read-out: MIC
From the text: as §1, §2, §3

C. jejuni P5/4 = assay: Antibacterial MIC/MBC (broth microdilution); type: cell-based, Campylobacter jejuni; details: Campylobacter jejuni; for MBC: read-out: MBC; for MIC: read-out: MIC
From the text: as §1, §2, §3

[1] = tested on: Salmonella enterica serovar Typhimurium CECT 443; assay: Antibacterial MIC/MBC (broth microdilution); type: cell-based; details: for MBC: read-out: MBC; for MIC: read-out: MIC
From the text: as §1, §2, §3

[2] = tested on: Campylobacter jejuni ATCC 33560; assay: Antibacterial MIC/MBC (broth microdilution); type: cell-based; details: for MBC / MIC: ATCC33560, Campylobacter jejuni ATCC 33560; for MBC: read-out: MBC; for MIC: read-out: MIC
From the text: as §1, §2, §3

[3] = tested on: Klebsiella pneumoniae ATCC 13883; assay: Antibacterial MIC/MBC (broth microdilution); type: cell-based; details: ATCC13883, Klebsiella pneumoniae ATCC 13883; for MBC: read-out: MBC; for MIC: read-out: MIC
From the text: as §1, §2, §3

[4] = tested on: Yersinia ruckeri ATCC 29473; assay: Antibacterial MIC/MBC (broth microdilution); type: cell-based; details: for MBC: ATCC29473, read-out: MBC; for MIC: ATCC29473, read-out: MIC
From the text: as §1, §2, §3

[5] = tested on: Staphylococcus aureus ATCC 29213; assay: Antibacterial MIC/MBC (broth microdilution); type: cell-based; details: for MBC: ATCC29213, read-out: MBC; for MIC: ATCC29213, read-out: MIC
From the text: as §1, §2, §3

[6] = tested on: Listonella anguilarum ATCC 1924; assay: Antibacterial MIC/MBC (broth microdilution); type: cell-based; details: for MBC / MIC: Listonella anguilarum ATCC 1924; for MBC: read-out: MBC; for MIC: read-out: MIC
From the text: as §1, §2, §3

[7] = tested on: Enterococcuss faecalis ATCC 29212; assay: Antibacterial MIC/MBC (broth microdilution); type: cell-based, Enterococcus faecalis; details: for antibacterial activity (in words): E. faecalis ATCC 29212; for MBC / MIC: Enterococcus faecalis, ATCC29212, Enterococcuss faecalis ATCC 29212; for MBC: read-out: MBC; for MIC: read-out: MIC
From the text: as §1, §2, §3

E. faecalis B3/101 (VRE) = assay: Antibacterial MIC/MBC (broth microdilution); type: cell-based, Enterococcus faecalis; details: Enterococcus faecalis, E. faecalis B3/101 (VRE); for MBC: read-out: MBC; for MIC: read-out: MIC
From the text: as §1, §2, §3

[8] = tested on: Tenacibaculum maritimum ATCC 43397; assay: Antibacterial disk diffusion; type: cell-based; details: Tenacibaculum maritimum ATCC 43397, footnote *
From the text: as §1, §2, §3

E. coli SA/2 (ESBL) = assay: Antibacterial MIC/MBC (broth microdilution); type: cell-based, Escherichia coli; details: Escherichia coli
From the text: as §1, §2, §3

[9] = tested on: E. coli 2252 (COL-resistant); assay: Antibacterial MIC/MBC (broth microdilution); type: cell-based, Escherichia coli; details: Escherichia coli, E. coli 2252 (COL-resistant); for MBC: read-out: MBC; for MIC: read-out: MIC
From the text: as §1, §2, §3

Compound | MBC (S. aureus 66/1 (MRSA)) [µg/mL] | MIC (S. aureus 66/1 (MRSA)) [µg/mL] | MBC (C. jejuni 4433) [µg/mL] | MIC (C. jejuni 4433) [µg/mL] | MBC (C. jejuni 4448) [µg/mL] | MIC (C. jejuni 4448) [µg/mL] | MBC (C. jejuni 4432) [µg/mL] | MIC (C. jejuni 4432) [µg/mL] | MBC (C. jejuni P5/4) [µg/mL] | MIC (C. jejuni P5/4) [µg/mL] | MBC [1] [µg/mL] | MIC [1] [µg/mL] | MBC [2] [µg/mL] | MIC [2] [µg/mL] | MBC [3] [µg/mL] | MIC [3] [µg/mL] | MBC [4] [µg/mL] | MIC [4] [µg/mL] | MBC [5] [µg/mL] | MIC [5] [µg/mL] | also measured
CCN(CC)CCNC(=O)CC[C@@H](C)[C@H]1CC[C@H]2[C@@H]3CC[C@@H]4C[C@H](O)CC[C@]4(C)[C@H]3C[C@H](O)[C@]12C [Compound 6, (R)—N-(2-(diethylamino)ethyl)-4-((3R,5R,8R,9S,10S,12S,13R,14S,17R)-3,12-dihydroxy-10,13-dimethylhexadecahydro-1H-cyclopenta[a]phenanthren-17-yl)pentanamide] | 64 (≈ 130 µM) | 64 (≈ 130 µM) | > 64 | > 64 | > 64 | > 64 | > 64 | > 64 | > 64 | > 64 | > 64 | > 64 | > 64 | > 64 | > 64 | > 64 | > 64 | > 64 | 64 (≈ 130 µM) | 64 (≈ 130 µM) | antibacterial activity (in words) ([6]; Listonella anguilarum): active; MBC [6]: 64 µg/mL (≈ 130 µM); MIC [6]: 64 µg/mL (≈ 130 µM); antibacterial activity (in words) [7]: exhibited antimicrobial activity; MBC [7]: 64 µg/mL (≈ 130 µM); MIC [7]: 64 µg/mL (≈ 130 µM); MBC (E. faecalis B3/101 (VRE)): > 64 µg/mL; MIC (E. faecalis B3/101 (VRE)): > 64 µg/mL; Inhibition zone diameter (disk diffusion) [8]: 10 mm; MBC (E. coli SA/2 (ESBL)): > 64 µg/mL; MIC (E. coli SA/2 (ESBL)): > 64 µg/mL; MBC [9]: > 64 µg/mL; MIC [9]: > 64 µg/mL
C[C@H](CCC(=O)N1CCCCC1)[C@H]1CC[C@H]2[C@@H]3CC[C@@H]4C[C@H](O)CC[C@]4(C)[C@H]3C[C@H](O)[C@]12C [Compound 2, (R)-4-((3R,5R,8R,9S,10S,12S,13R,14S,17R)-3,12-dihydroxy-10,13-dimethylhexadecahydro-1H-cyclopenta[a]phenanthren-17-yl)-1-(piperidin-1-yl) pentan-1-one] | > 64 | 32 (≈ 69.6 µM) | > 64 | > 64 | > 64 | > 64 | > 64 | 64 (≈ 139 µM) | > 64 | > 64 | > 64 | > 64 | 64 (≈ 139 µM) | 64 (≈ 139 µM) | > 64 | > 64 | > 64 | > 64 | > 64 | 32 (≈ 69.6 µM) | antibacterial activity (in words) (C. jejuni 4433): showed antimicrobial activity; antibacterial activity (in words) (C. jejuni 4448): showed antimicrobial activity; antibacterial activity (in words) (C. jejuni 4432): showed antimicrobial activity; antibacterial activity (in words) ([2]; C. jejuni ATCC 33560): showed antimicrobial activity; MBC [6]: > 64 µg/mL; MIC [6]: > 64 µg/mL; antibacterial activity (in words) [7]: exhibited antimicrobial activity; MBC [7]: > 64 µg/mL; MIC [7]: 32 µg/mL (≈ 69.6 µM); MBC (E. faecalis B3/101 (VRE)): > 64 µg/mL; MIC (E. faecalis B3/101 (VRE)): > 64 µg/mL; Inhibition zone diameter (disk diffusion) [8]: 18 mm; MBC (E. coli SA/2 (ESBL)): > 64 µg/mL; MIC (E. coli SA/2 (ESBL)): > 64 µg/mL; MBC [9]: > 64 µg/mL; MIC [9]: > 64 µg/mL
